Assay results reported in ChEMBL document CHEMBL1201862, “PubChem BioAssay data set” (2004).
Active and inactive are the calls of the source.

Assays:
Cytochrome P450 2D6 = Cytochrome P450 2D6 (Homo sapiens, UniProt P10635);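 further: CYP2D6 member of a cytochrome P450 panel assay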
Cytochrome P450 2C9 = Cytochrome P450 2C9 (Homo sapiens, UniProt P11712)
Cytochrome P450 3A4 = Cytochrome P450 3A4 (Homo sapiens, UniProt P08684);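 further: CYP3A4 tested as one member of a cytochrome P450 panel screen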
[1] = cytotoxicity in HEK-293T cells, dose response, cytotoxicity control for TCR NF-kB inhibitor project, luminescence, T-cell screen hits (AID 489026); assay type: functional, cell-based;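 further: cells exposed to compound about 14 hours before the viability readout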
[2] = target: T1, Nucleotide-binding oligomerization domain-containing protein 1 (Homo sapiens, UniProt Q9Y239); assay: NOD1 signaling inhibitors, SAR follow-up, revised (AID 2333); assay type: functional
T1 sequence (Q9Y239 whole entry): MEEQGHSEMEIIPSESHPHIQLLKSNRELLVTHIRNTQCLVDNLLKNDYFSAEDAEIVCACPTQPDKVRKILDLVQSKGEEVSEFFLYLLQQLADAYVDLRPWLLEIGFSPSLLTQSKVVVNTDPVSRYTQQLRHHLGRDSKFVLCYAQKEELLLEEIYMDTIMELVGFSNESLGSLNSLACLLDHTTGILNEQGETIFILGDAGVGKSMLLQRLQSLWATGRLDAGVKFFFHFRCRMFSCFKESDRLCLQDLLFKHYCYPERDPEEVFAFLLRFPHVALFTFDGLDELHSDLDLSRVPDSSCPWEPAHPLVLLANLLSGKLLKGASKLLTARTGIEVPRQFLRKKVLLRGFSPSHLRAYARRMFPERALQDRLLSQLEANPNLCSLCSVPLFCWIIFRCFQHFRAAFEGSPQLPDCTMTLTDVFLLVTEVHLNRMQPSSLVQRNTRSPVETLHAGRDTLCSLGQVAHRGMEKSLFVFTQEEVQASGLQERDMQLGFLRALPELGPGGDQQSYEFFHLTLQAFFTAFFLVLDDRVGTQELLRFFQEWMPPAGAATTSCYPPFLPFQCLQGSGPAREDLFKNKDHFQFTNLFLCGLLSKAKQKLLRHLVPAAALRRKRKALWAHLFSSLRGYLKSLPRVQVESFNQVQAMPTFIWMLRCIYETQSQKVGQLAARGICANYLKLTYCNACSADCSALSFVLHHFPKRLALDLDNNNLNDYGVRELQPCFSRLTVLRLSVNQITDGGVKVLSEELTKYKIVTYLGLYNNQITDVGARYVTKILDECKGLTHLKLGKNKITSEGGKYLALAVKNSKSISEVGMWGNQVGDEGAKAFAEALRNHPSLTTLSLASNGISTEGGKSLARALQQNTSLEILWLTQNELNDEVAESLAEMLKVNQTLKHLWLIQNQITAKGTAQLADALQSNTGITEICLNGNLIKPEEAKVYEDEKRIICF

Tumor necrosis factor = Tumor necrosis factor (Homo sapiens, UniProt P01375); assay: TNFa-triggered NF-kB activation inhibitors, SAR follow-up, cell-based, revised (AID 2337); assay type: functional
Sequence of Tumor necrosis factor (P01375 whole entry): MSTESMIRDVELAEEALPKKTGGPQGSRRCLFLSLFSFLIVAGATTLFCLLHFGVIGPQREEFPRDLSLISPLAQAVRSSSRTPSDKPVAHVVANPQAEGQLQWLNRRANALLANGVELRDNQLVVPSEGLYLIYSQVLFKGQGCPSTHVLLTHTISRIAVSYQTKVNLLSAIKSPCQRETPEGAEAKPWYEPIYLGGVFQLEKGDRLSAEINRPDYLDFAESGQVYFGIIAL

HEK293 = assay: cells; conditions: Homo sapiens;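 further: cells exposed to compound for 14 hours overnight before viability readout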
SUMO-activating enzyme = SUMO-activating enzyme (Homo sapiens, UniProt Q9UBT2); assay: SUMOylation inhibitor hit validation, confirmation, SUMOylation inhibitor project, biochemical, AlphaScreen (AID 2018); assay type: functional
Sequence of SUMO-activating enzyme (Q9UBE0 whole entry): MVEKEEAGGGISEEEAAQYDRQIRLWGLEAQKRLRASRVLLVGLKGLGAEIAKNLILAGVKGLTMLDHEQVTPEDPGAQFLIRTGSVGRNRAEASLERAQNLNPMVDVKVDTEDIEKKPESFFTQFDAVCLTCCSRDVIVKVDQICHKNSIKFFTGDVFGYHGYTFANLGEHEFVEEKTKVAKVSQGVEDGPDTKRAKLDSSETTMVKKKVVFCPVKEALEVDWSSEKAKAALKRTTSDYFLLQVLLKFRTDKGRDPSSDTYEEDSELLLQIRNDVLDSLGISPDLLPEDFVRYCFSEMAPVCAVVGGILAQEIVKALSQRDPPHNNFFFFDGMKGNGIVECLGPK
Sequence of SUMO-activating enzyme (Q9UBT2 whole entry): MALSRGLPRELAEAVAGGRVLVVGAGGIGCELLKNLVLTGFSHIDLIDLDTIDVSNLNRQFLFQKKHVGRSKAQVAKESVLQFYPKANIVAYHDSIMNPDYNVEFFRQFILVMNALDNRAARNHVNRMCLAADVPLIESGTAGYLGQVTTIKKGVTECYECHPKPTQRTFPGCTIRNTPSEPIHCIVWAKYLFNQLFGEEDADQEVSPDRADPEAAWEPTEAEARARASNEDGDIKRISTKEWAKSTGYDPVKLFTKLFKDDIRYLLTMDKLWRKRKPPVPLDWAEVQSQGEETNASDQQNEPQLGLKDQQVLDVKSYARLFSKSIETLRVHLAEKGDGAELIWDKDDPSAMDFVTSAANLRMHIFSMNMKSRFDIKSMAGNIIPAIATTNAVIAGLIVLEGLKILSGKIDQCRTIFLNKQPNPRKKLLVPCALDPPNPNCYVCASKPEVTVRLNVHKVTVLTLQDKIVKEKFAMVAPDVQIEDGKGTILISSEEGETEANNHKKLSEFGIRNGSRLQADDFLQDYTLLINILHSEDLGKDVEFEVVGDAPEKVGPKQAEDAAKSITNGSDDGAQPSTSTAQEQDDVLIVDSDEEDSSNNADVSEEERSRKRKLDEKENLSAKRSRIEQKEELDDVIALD

SUMO E1/E2 = SUMO E1/E2 (Homo sapiens, UniProt P63279+Q9UBE0+Q9UBT2); assay: SAR analysis of SUMOylation using HTRF in an in-Vitro dose response assay. [Related pubchem assays (depositor defined):AID2006, AID2011, AID2018, AID2069, AID2658]; assay type: functional
Sequence of SUMO E1/E2 (Q9UBE0 whole entry): as the sequence (Q9UBE0 whole entry) above
Sequence of SUMO E1/E2 (Q9UBT2 whole entry): as the sequence (Q9UBT2 whole entry) above
Sequence of SUMO E1/E2 (P63279 whole entry): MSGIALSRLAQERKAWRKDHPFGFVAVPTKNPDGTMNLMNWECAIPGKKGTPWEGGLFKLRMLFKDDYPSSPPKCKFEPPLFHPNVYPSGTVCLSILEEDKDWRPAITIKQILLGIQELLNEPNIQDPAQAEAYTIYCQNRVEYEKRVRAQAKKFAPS

Beta-galactosidase = Beta-galactosidase (Escherichia coli, UniProt Q8VNN2); assay: beta-galactosidase enzyme inhibitors and activators, dose response, artefact control for CCR6 antagonist project, biochemical, E. coli enzyme, set 3 (AID 504712); assay type: functional
Sequence of Beta-galactosidase (Q8VNN2 whole entry): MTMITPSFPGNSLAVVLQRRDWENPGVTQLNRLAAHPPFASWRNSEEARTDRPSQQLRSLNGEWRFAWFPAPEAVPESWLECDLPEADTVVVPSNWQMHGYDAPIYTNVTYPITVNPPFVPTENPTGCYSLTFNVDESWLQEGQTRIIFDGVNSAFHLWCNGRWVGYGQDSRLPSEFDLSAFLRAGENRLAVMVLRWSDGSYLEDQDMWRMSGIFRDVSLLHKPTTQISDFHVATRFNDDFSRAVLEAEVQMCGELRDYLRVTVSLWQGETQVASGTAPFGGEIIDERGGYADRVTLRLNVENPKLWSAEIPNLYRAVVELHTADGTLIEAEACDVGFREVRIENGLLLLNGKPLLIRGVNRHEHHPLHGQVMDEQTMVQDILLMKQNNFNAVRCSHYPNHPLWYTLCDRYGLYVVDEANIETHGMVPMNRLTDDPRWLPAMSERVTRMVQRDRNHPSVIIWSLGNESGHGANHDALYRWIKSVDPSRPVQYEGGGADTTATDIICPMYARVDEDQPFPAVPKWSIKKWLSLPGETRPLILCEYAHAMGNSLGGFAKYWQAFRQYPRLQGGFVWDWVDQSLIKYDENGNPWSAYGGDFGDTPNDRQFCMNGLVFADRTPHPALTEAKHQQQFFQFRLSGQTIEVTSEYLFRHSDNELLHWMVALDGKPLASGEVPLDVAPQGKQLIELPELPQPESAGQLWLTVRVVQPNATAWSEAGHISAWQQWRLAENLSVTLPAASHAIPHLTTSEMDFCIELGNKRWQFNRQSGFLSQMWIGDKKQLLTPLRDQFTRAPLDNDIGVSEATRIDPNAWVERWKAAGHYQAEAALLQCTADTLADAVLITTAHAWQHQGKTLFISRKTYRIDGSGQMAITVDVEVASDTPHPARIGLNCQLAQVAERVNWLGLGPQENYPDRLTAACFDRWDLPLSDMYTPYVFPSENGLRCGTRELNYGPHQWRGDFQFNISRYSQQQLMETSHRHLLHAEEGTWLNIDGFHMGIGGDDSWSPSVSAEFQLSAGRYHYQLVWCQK

[3] = target: Heat shock protein HSP 90-alpha (Homo sapiens, UniProt P07900); assay type: functional, organism-based
[4] = Luminescence Cell-Based Dose Retest to Confirm Inhibitors of Cancer Stem Cells. [Related pubchem assays (depositor defined):AID2717, AID2721]; assay type: functional; conditions: Homo sapiens
Exodeoxyribonuclease V = target: T2, Exodeoxyribonuclease V (Escherichia coli (strain K12), UniProt P04993+P07648+P08394); assay: E. coli RecBCD inhibitors, dose response, counter-screen for AddAB inhibitor project, absorbance, V66 E. coli, mutant T4 phage (AID 492957); assay type: functional, cell-based, Escherichia coli str. K-12 substr. MG1655
T2 sequence (P04993 whole entry): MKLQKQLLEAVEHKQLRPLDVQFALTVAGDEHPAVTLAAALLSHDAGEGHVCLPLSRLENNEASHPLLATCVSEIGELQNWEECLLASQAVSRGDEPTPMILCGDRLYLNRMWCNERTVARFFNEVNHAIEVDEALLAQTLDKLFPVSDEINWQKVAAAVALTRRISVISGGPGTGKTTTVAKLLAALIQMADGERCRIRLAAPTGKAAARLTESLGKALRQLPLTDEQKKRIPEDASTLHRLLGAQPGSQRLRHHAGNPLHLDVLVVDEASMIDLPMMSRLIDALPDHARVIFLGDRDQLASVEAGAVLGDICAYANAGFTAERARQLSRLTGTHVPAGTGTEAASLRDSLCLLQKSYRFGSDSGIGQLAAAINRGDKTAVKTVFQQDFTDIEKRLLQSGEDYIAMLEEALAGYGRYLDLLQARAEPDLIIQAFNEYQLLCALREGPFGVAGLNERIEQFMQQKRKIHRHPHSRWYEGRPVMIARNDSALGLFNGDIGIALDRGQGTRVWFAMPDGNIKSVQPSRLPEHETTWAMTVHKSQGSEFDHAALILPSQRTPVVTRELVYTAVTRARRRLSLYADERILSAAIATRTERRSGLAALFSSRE
T2 sequence (P07648 whole entry): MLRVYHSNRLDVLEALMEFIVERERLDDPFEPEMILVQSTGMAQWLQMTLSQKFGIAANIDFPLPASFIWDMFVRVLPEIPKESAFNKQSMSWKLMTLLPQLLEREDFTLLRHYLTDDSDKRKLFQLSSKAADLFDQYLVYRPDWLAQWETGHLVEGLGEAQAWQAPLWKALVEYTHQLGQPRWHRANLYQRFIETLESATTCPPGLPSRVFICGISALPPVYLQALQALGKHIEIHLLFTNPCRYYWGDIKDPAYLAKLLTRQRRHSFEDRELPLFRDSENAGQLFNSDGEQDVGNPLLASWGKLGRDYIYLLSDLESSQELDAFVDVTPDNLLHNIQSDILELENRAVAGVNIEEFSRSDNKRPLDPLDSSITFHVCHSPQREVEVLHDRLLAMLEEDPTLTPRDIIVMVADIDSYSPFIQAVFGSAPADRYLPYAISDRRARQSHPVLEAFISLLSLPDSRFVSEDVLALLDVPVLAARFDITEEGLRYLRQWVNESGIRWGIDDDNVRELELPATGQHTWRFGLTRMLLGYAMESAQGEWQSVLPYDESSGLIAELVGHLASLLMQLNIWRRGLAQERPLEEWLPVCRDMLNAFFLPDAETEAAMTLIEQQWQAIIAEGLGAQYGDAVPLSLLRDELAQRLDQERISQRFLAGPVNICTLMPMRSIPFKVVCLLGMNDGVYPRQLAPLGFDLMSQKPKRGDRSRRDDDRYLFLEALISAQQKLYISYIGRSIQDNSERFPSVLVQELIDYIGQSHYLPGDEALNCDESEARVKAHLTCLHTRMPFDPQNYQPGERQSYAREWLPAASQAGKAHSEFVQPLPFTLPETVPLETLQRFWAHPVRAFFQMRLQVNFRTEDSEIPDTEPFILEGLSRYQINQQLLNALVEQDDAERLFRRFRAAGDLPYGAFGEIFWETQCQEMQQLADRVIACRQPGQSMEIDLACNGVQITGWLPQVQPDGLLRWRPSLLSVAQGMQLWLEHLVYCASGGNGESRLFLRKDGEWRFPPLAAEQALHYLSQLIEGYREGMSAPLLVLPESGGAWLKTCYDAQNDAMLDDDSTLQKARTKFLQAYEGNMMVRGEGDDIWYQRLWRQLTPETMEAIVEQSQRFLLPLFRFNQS
T2 sequence (P08394 whole entry): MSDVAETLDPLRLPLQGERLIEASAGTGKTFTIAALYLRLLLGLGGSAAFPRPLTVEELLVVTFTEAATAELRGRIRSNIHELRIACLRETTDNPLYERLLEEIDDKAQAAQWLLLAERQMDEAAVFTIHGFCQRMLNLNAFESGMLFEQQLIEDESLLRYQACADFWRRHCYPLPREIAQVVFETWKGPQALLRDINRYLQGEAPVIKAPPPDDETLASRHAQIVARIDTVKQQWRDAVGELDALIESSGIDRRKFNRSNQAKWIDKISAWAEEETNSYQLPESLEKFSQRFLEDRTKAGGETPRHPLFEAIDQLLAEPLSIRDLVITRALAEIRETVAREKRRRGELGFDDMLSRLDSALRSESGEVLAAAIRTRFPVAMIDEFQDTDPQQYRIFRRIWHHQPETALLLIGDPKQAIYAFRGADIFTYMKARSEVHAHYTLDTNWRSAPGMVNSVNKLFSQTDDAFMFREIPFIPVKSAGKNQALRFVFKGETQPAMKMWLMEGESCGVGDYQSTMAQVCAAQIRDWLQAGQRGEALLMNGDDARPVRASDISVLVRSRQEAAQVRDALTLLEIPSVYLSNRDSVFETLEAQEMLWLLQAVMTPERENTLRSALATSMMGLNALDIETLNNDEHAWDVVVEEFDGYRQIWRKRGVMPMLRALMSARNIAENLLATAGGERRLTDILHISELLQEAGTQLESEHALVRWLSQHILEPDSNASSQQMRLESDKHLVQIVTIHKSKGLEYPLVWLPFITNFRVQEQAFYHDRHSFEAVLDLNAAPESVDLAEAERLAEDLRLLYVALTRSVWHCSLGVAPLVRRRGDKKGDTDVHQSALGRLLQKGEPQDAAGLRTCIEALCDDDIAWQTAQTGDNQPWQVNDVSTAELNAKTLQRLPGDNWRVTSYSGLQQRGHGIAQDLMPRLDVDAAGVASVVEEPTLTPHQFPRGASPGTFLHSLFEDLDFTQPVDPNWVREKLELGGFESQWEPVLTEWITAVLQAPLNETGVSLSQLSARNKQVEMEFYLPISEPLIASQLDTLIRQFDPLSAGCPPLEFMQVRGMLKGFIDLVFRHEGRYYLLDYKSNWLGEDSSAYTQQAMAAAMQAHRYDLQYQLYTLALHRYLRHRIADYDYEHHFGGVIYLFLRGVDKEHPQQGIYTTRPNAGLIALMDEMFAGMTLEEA

Nonstructural protein 1 = Nonstructural protein 1 (Influenza A virus, UniProt Q194T2); assay type: functional, Influenza A virus (A/California/07/2009(H1N1))
Sequence of Nonstructural protein 1 (Q194T2 whole entry): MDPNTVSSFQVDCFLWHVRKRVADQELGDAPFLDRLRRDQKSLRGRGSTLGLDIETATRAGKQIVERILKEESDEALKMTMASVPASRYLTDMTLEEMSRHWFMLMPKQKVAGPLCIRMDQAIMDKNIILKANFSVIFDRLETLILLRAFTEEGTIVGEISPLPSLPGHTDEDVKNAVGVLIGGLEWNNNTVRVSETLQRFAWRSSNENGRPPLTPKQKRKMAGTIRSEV

[5] = target: T3, Microphthalmia-associated transcription factor (Homo sapiens, UniProt O75030); assay: TRPM1 promoter luciferase signal decrease, dose response, MITF inhibitor project, cell-based, SK-MEL-5, cherry-picked, set 3 (AID 493073); assay type: functional
T3 sequence (O75030 whole entry): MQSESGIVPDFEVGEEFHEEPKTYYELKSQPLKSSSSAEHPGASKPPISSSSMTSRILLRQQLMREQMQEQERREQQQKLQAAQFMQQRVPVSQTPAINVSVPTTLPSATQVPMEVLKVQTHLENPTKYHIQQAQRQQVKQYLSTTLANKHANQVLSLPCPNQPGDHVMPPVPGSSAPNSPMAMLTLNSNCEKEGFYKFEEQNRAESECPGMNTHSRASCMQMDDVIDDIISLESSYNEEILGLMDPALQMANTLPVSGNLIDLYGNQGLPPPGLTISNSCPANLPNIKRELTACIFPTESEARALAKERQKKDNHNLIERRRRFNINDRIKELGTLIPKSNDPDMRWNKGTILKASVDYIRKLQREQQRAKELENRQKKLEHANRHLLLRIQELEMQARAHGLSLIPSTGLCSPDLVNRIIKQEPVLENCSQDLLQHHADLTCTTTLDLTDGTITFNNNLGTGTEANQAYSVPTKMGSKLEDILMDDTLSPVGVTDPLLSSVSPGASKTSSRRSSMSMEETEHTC

[6] = Counterscreen for AddAB inhibitors: absorbance-based bacterial cell-based high throughput dose response assay for inhibitors of bacterial viability. [Related pubchem assays (depositor defined):AID435030, AID449728, AID449731, AID488942, AID488955, AID488956]; assay type: functional
[7] = cytotoxicity in MIN6 insulinoma cells, dose response, cytotoxicity control, cell-based, mouse insulinoma (AID 2122); assay type: functional;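 further: confirmatory high-throughput counterscreen run to flag cytotoxic compounds; mouse MIN-6 beta cells carrying an insulin promoter eGFP reporter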
[8] = insulin promoter down-regulators in MIN6 cells, imaging, high-content screening, mouse beta cells (AID 1628); assay type: functional
Cytochrome P450 2C19 = Cytochrome P450 2C19 (Homo sapiens, UniProt P33261); assay: Cytochrome panel assay with activity outcomes. Panel member name: p450-cyp2c19 Compounds with AC50 equal or less than 10 uM are considered active; assay type: functional; conditions: read-out: AC50
Sequence of Cytochrome P450 2C19 (P33261 whole entry): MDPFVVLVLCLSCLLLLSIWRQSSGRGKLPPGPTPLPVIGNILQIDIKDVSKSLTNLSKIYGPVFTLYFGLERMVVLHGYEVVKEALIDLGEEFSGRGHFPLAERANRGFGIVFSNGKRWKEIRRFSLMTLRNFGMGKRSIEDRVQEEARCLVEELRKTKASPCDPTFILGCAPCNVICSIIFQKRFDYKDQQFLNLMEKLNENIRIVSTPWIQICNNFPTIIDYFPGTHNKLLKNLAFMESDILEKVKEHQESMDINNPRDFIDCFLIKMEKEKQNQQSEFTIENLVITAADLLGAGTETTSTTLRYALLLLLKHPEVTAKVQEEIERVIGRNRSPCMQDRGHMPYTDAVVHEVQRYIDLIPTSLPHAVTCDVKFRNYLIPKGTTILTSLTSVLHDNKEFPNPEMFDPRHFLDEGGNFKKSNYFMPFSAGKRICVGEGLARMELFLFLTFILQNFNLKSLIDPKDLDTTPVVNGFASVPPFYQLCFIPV

Sequence of Cytochrome P450 3A4 (P08684 whole entry): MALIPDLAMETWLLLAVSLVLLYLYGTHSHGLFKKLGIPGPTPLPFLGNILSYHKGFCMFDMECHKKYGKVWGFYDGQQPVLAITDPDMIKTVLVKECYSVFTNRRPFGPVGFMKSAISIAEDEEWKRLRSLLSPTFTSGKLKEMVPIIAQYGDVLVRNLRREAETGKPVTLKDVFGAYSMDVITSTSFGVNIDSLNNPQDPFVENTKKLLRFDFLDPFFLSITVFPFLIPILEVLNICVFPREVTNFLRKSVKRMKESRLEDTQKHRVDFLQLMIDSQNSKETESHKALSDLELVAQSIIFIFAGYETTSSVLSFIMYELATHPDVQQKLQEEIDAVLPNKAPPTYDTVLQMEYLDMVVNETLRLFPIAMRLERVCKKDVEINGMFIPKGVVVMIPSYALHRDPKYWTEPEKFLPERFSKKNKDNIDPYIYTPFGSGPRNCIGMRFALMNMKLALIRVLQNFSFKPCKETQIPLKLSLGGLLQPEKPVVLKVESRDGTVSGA
Sequence of Cytochrome P450 2D6 (P10635 whole entry): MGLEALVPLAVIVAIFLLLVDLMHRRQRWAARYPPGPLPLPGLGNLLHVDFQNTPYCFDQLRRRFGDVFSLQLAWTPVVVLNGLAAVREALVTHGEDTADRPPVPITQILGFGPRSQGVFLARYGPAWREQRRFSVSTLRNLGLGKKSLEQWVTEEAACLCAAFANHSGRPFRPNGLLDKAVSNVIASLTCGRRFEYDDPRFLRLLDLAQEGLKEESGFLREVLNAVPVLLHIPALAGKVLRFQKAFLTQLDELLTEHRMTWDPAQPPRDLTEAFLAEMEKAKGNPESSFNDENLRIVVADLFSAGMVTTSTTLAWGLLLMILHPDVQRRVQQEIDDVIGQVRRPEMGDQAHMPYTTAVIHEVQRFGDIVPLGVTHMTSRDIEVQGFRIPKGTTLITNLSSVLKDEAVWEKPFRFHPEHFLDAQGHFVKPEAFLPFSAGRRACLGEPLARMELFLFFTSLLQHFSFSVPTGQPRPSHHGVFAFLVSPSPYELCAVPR
Sequence of Cytochrome P450 2C9 (P11712 whole entry): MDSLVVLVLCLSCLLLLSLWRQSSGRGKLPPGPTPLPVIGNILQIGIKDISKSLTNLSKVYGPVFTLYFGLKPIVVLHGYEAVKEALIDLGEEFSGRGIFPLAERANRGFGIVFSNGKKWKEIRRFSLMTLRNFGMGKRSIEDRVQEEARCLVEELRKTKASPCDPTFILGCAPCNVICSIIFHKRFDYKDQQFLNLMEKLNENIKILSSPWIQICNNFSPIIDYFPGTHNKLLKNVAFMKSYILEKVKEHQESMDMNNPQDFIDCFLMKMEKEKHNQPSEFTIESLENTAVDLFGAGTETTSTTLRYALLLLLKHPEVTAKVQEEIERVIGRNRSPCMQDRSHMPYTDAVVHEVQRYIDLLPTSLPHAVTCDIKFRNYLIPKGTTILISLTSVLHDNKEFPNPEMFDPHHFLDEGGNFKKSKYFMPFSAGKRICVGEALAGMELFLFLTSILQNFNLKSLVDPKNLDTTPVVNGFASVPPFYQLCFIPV

Cc1ccc(N=C(S)N2CCN(C(=O)C3CCCO3)CC2)c(C)c1 (stereo not drawn)
AC50 (Cytochrome P450 2D6): inconclusive
AC50 (Cytochrome P450 2C9): inconclusive
AC50 (Cytochrome P450 3A4): 22.4 µM (inconclusive)

O=C(Nc1ccc(F)cc1)c1ccc(CN2CCc3ccccc3C2)cc1
IC50 [1]: > 80 µM (inactive)
IC50 [2]: 3.11 µM (active)
IC50 (Tumor necrosis factor): 2.88 µM (active)
IC50 (HEK293): > 20 µM (inactive)

COc1cccc(NC(=O)Nc2nnc(-c3ccccc3SCc3ccccc3)s2)c1
IC50 (SUMO-activating enzyme): 56.6 µM (active)

C/C(=N\NC(=O)COc1ccc([N+](=O)[O-])cc1)C(C)(C)C
AC50 (Cytochrome P450 2D6): inconclusive
AC50 (Cytochrome P450 3A4): 28.2 µM (inconclusive)

COc1cc(-c2n[nH]c(=S)n2/N=C/c2cccn2C)cc(OC)c1OC
IC50 (SUMO E1/E2): > 100 µM (inactive)

O=C1C=CC(=O)N1c1ccc(OC(F)F)cc1
IC50 (Beta-galactosidase): > 66.6 µM (inactive)
AC50 [3]: 1.65 µM (active)
AC50 [4]: 3.12 µM (active)

Oc1nncc(N/N=C/c2ccccn2)n1
IC50 (Exodeoxyribonuclease V): 27.5 µM (inactive)
IC50 (Nonstructural protein 1): 1.44 µM (active)
AC50 [5]: 4.65 µM (active)
IC50 [6]: 32.2 µM (inactive)

CNS(=O)(=O)c1cccc(C(=O)OCC(=O)/C=C2/N(C)c3ccccc3C2(C)C)c1
IC50 [7]: 1.64 µM (active)
IC50 [8]: 2.64 µM (active)

COC(=O)[C@H]1[C@@H](c2ccccc2)[C@@]2(c3ccccc3)Oc3ccccc3[C@@]1(O)[C@@H]2O
AC50 (Cytochrome P450 2D6): inconclusive
AC50 (Cytochrome P450 2C19): 3.98 µM (inconclusive)
AC50 (Cytochrome P450 3A4): 3.16 µM (inconclusive)
